# Experimental data taken from patent US5380714A, “2-furyl-triazalo [1,5-a]-[1,3,5]triazines and pyrazolo [2,3-a][1,3,5]triazines” (Imperial Chemical Industries PLC, priority 1991, dated 1995).
# Molecular target: T1, A2 Adenosine receptor (Rattus norvegicus, UniProt P30543)
# T1 construct: membrane preparations derived from the rat phaeochromocytoma cell line PC 12; host or cells: PC 12 (rat phaeochromocytoma)
# Test: A2 Adenosine receptor affinity test: displacement of [3H]-NECA from PC 12 cell membranes
# Format: binding
# Description: (a) A2 Adenosine receptor affinity test This test involves the ability of a test adenosine antagonist to displace the known adenosine mimetic agent [^3 H]-N-ethylcarboxamidoadenosine (NECA) from binding sites on membrane preparations derived from the rat phaeochromocytoma cell line PC 12 (available from the Beatson Institute, Glasgow). […] The membrane preparation is obtained as follows: Frozen pellets of PC12 cells are washed twice with ice cold, buffered, physiological saline and the cells recovered by centrifugation (1500 G) at 3° C. The separated cells are then suspended in hypotonic solution (distilled water), allowed to stand on ice for 30 minutes and are then carefully homogenized using a standard high-speed homogeniser with periodic ice-cooling to obtain a fine suspension. […] A1280). The mixture is then incubated at 37° C. After 20 minutes, the reaction is terminated by dilution with ice-cold buffer and transfer onto ice. The material obtained containing the cell membranes is recovered by centrifugation and washed by resuspension in buffer and recentrifugation. The pellet produced is then resuspended in ice-cold buffer using a hand-driven homogenizer. The resultant membrane suspension is frozen and stored under liquid nitrogen until required. […] After incubation, the samples are rapidly filtered over glass-fibre mats and the filter mats are washed to remove non-receptor-bound radioligand. Receptor-bound radioligand entrapped on the filter mats is then determined by liquid scintillation counting. Filtration and washing are carried out using a conventional vacuum filtration cell harvester. The specific binding (defined as the difference between the total binding and the non-specific binding) in the presence of the particular test compound is determined and compared with the control value.
# [1] = read-out: displacement of control binding
# T1 sequence (P30543 whole entry): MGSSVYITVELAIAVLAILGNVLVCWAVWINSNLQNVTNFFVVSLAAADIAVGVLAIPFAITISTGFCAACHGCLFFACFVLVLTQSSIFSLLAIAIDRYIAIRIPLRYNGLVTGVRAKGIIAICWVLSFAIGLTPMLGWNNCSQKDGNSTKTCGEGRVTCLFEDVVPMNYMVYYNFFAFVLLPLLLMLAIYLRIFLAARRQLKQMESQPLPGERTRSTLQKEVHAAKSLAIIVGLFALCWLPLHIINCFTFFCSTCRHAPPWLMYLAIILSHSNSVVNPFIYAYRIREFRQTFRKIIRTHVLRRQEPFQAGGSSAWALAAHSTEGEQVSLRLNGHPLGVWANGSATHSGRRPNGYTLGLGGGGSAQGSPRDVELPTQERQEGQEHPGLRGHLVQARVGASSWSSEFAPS
compound,measurement,setting,value
"CN(C)CCN(C)S(=O)(=O)c1ccc(CCNc2nc(N)n3nc(-c4ccco4)nc3n2)cc1 [Example 1, 7-Amino-2-(2-furyl)-5-[2-[(4-dimethylaminoethyl-N,methylsulphonamido)phenyl]ethyl]amino[1,2,4]-triazolo[1,5-a][1,3,5]-triazine]",IC50,"[3H]-NECA displacement, PC 12 membranes, inferred from displacement at 10^-5 M and 10^-7 M, read-out: pIC50 (indicated by % displacement values) (converted)",< 100 nM
same,inhibition at 0.1 µM,[1],77.7%
same,inhibition at 10 µM,[1],93.7%
